# Data reported in patent publication US4717722A, “Substituted 1-oxa-dethiacephalosporins as anti-inflammatory and antidegenerative agents” (Merck & Co., Inc., priority 1984, dated 1988).
# Target: T1, Human Polymorphonuclear Leukocyte Elastase (Homo sapiens, UniProt P08246)
# T1 construct: Crude extract of human polymorphonuclear leukocytes (PMN) containing elastase activity; endogenous in cells; host or cells: human polymorphonuclear leukocytes (PMN), crude extract
# T1 sequence (P08246 30-247 limits assumed): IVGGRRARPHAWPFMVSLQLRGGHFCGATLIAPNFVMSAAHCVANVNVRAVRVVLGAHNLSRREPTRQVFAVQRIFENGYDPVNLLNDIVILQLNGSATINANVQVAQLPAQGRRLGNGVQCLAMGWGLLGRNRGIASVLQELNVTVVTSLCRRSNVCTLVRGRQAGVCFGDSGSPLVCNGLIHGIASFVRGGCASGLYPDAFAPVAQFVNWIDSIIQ
# Experiment: Inhibition of human polymorphonuclear leukocyte elastase via hydrolysis of Boc-AAPAN
# Format: biochemical
# Conditions: effective dosage for 50% inhibition of the enzyme activity 2 minutes after zero time; crude PMN extract, 0.2 mM Boc-AAPAN, pH 7.5; read-out: ED50 (the source's name) (converted)
# Procedure: Enzyme Assays for the Inhibition of Human Polymorphonuclear Leukocyte Elastase Via Hydrolysis of N-t-Boc-alanyl-alanyl-prolylalanine-p-nitroanilide Reagents
# 0.05 M TES (N-tris[hydroxymethyl]methyl-2-amino-ethanesulfonic acid) Buffer, pH 7.5.
# 0.2 mM N-t-Boc-alanyl-alanyl-prolyl-alanine-p-nitroanilide (Boc-AAPAN).
# To prepare substrate, the solid (m.w. 550) was first dissolved in 10.0 ml DMSO. Buffer at pH 7.5 was then added to a final volume of 100 ml.
# Crude extract of human polymorphonuclear leukocytes (PMN) containing elastase activity.
# Inhibitors (cephalosporin sulfone esters) to be tested dissolved in DMSO just before use.
# To 1.0 ml of 0.2 mM Boc-AAPAN in a cuvette, 0.01-0.1 ml of DMSO with or without inhibitor was added. After mixing, a measurement was taken at 410 mμ to detect any spontaneous hydrolysis due to presence of test compound. 0.05 Milliliters of PMN extract was then added and the ΔOD/min at 410 mμ was measured and recorded. Beckman model 35 spectrophotometer was used.
# Results were reported as ED50, i.e., effective dosage in micrograms per milliliter (μg/ml) for 50% inhibition of the enzyme activity 2 minutes after zero time.
# The elastase activity in the crude PMN extract may vary from one preparation to another. A control of each new batch is run, and the volume added in the assay procedure is adjusted according to activity.
row,IC50 [µM],SMILES
1,≥ 36.5,COC(=O)C1=C(CSc2nnnn2C)COC2N1C(=O)C2(NC(=O)C(C(=O)OC)c1ccc(O)cc1)OC (stereo not shown)
2,29,COC1(NC(=O)C(C(=O)OCc2ccccc2)c2ccc(O)cc2)C(=O)N2C(C(=O)OCc3ccccc3)=C(C)COC21 (stereo not shown)
3,12.7,CC1=COC2C(NC(=O)c3ccccc3)C(=O)N2C1C(=O)OCc1ccccc1 (stereo not shown)
4,51,CC1=C(C(=O)OCc2ccccc2)N2C(=O)C(NC(=O)c3ccccc3)C2OC1 (stereo not shown) [C6 H5 CONH]
